Reference: US20250127800A1, “PYRIMIDINE OR PYRIDINE DERIVATIVE AND MEDICINAL USE THEREOF” (SIGNET THERAPEUTICS INC., priority 2021, published 2025)

What was measured:
NUGC4 cells = assay: Cell proliferation inhibition, NUGC4 (CELL TITER-GLO); assay type: cell-based; details: Homo sapiens, NUGC-4, 96 h; NUGC4, 4 days
Description: (§1) • a. SNU-668 cells (catalog number: 00668, KCLB) or NUGC4 cells (catalog number: 0834, JCRB) were allowed to grow to 70%-80% confluence, the supernatant of the culture medium was pipetitted off, rinsed once with PBS and then pipetitted off; • b. To a 10 cm dish was added 1 mL of 0.25% trypsin, votexed to homogenity and then place into incubator for digestion for 2-3 min; • c. The culture dish is removed from the incubator added with 2-3 mL complete culture medium to terminate the digestion, pipetitted into a 15 mL centrifuge tube, and then centrifuged in centrifuge at 1000 rpm for 5 minutes; • d. The supernatant was pipetitted off, and the cells were resuspended in 1 mL of complete culture medium, and then counted; • e. 1000 cells were plated into each well of 96-well plate, and then cultured overnight in a cell incubator, 2) Cell Administration with Compounds • a. Compounds to be tested were dissolved and votexed to homogeneity; • b. Each compound was serielly diluted in 1:3 ratio from 1 mM stock solution to 9 gradient concentrations; • c. The plate seeded with cells was taken out from the incubator, pipetitted off culture medium, and then added slowly in each well with 100 μL fresh culture medium by multi-channel pipette. Wells are labeled by corresponding compounds and concentrations, and then gently added with 100 μL compound-containing culture medium along the well wall by multi-channel pipette; • d. After the addition to all wells, the plate was gently shaken to allow homogeneous spread of the compound, and then put back to the incubator, with time recorded;
(§2) 4 days after the addition of compounds, the culture medium was removed and mixed at 100 μL from each well with cell titer-glo testing liquid in 1:1 ratio. The mixture was incubated with shaking at room temperature for 10 min and then counted with Plate reader.

FAK [1] = biological target: T1, FAK (Homo sapiens (Human), UniProt Q05397); assay: In vitro enzymatic inhibitory activity, FAK kinase (HTRF KinEASE-TK); details: FAK kinase, enzyme pre-incubation 15 minutes at 25° C.
[2] = system: activated YAP (non-p-YAP); assay: Western Blot of activated YAP in DGC organoid model; assay type: cell-based; details: 48 hours, dose-dependent
Description: (§3) Experimental procedures: Organoids were amplified in 6-well plates (7 Matrigel aliquots per well) for 2-3 days prior to evaluation. After passage, 1000 cells were inoculated in 5 μl Matrigel aliquot into each well containing 100 μl 50% L-WRN medium in a 96-well plate. Organoids were cultured for 24 hours, followed by addition of the compounds. Compounds were dissolved in DMSO as stock solution (with a final concentration of […]), which was then diluted with DMSO to 1000× concentration of the testing concentration. Culture medium was added to the stock solution to dilute to the testing concentration. The diluted solution was added to the culture plate. Once compound was added, culture medium was no longer added, and no further compound added. After the organoids were cultured for a specified number of days, the effects of compounds were evaluated by the following three methods, each using DMSO as negative control.
(§4) 2. After cell culture in accordance with the above procedure and culture with compounds for 48 hours, the cells were lysed, and proteins were extracted and tested by Western Blot. After gel imaging, gray values of protein bands were analyzed to investigate the effects of the compounds on phosphorylated FAK and activated YAP in the organoid model. (For detailed methods, please refer to Haisheng Zhang, Cancer Discovery, 2020).

FAK (p-FAK 397) = assay: Western Blot of phosphorylated FAK in DGC organoid model; assay type: cell-based; details: 48 hours, dose-dependent
Description: as §3, §4

[3] = system: diffuse-type gastric cancer (DGC) organoid; assay: Cell morphology in diffuse-type gastric cancer (DGC) organoid model; assay type: cell-based; details: 500 nM compound
Description: as §3
1. There was a difference in cell morphology between normal cells and the diffuse-type gastric cancer (DGC) organoid model. Normal organoids have hollow spheroid shape, while organoids of diffuse-type gastric cancer have solid grape-like irregular shape. Therefore, the observations of the effect of drugs on cell morphology may be one of the important characteristics for evaluating drug efficacy.

FAK [4] = biological target: T1, FAK; assay: Time-dependent FAK kinase inhibition activity test; assay type: biochemical
SNU-668 cells = assay: Cell proliferation inhibition, SNU-668 (CELL TITER-GLO); assay type: cell-based; details: Homo sapiens, SNU668, 96 h; SNU-668, 4 days
Description: as §1, §2

YAP (non-p-YAP) = YAP (non-p-YAP) (Homo sapiens (Human), UniProt P46937); assay: Western blot of YAP activity in SNU-668 cell line model; assay type: cell-based; details: SNU668, 24 hours
Description: • a. SNU-668 cells (catalog number: 00668, KCLB) were allowed to grow to 70%-80% confluence, the supernatant of the culture medium was pipetitted off, rinsed once with PBS and then pipetitted off; • b. To a 10 cm dish was added 2 mL trypsin, and digested in an incubator for 3-5 min; • c. The culture dish is removed from the incubator added with 5 mL 1640 medium (containing 10% FBS) to terminate the digestion, pipetitted into a 15 mL centrifuge tube, and then centrifuged in centrifuge at 1000 rpm for 5 minutes; • d. The supernatant was pipetitted off, added with 5 mL 1640 medium (containing 10% FBS). the cells were resuspended thoroughly and mix well, then counted; • e. 1.5×10^5 cells were seeded into each well of 12-well plate, and then cultured in a cell incubator for 24 h. 2) Cell Treatment with Compounds • a. Stock solutions of the compounds to be tested (1 mM) were diluted in DMSO, and blown and nixed several times to homogeneity; • b. The plate seeded with cells was taken out from the incubator, gently added in wells with 1 ul 1 mM stocks (1000× diluted) along the well wall, and then gently shaken immediately to homogeneity; • c. After the addition to all wells, the plate was gently shaken to allow homogeneous spread of the compound, and then put back to the incubator, with time recorded; Samples were collected after 24 hours.
• a. […]

[5] = In vivo pharmacokinetic evaluation in SD rats, gavage; details: rat, plasma, po, male SD rats, 5 mg/kg
Description: Three male SD rats were administered with compounds in a single dose of 5 mg/kg or 3 mg/kg by gavage, and blood samples were collected before administration and at 0.25, 0.5, 1, 2, 4, 6, 8, and 24 h after administration.
Preparation of solutions of compounds to be dosed at 5 mg/kg: 5.5 mg compound (converted based on purity) was accurately weighed and added to 0.55 mL of DMSO. Clear solutions were obtained after stirring and sonication. 0.5 mL of each of the above solutions was added with 1 mL of Solutol, stirred for 1 minute; and then added with 8.5 mL of physiological saline and stirred for 1 minute, to obtain a clear solution at 0.5 mg/mL concentration.
Preparation of a solution of compounds to be dosed at 3 mg/kg: 3.6 mg compound (converted according to purity) was accurately weighed and added to 0.6 mL of DMSO. Clear solutions were obtained after stirring and sonication. 0.5 mL of each of the above solutions was added with 1 mL of Solutol and stirred for 1 minute; and then added with 8.5 mL of physiological saline and stirred for 1 minute, to obtain a clear solution at 0.3 mg/mL concentration.
Rats were administered the formulations prepared in step 2 by gavage at a dose of 10 mL/kg. The rats were fasted overnight before the administration and resumed feeding 4 hours after administration. Throughout the entire experiment, the animals were free to access drinking water.
The plasma concentration was measured using LC-MS/MS method.

T1 sequence (Q05397 whole entry, species assumed): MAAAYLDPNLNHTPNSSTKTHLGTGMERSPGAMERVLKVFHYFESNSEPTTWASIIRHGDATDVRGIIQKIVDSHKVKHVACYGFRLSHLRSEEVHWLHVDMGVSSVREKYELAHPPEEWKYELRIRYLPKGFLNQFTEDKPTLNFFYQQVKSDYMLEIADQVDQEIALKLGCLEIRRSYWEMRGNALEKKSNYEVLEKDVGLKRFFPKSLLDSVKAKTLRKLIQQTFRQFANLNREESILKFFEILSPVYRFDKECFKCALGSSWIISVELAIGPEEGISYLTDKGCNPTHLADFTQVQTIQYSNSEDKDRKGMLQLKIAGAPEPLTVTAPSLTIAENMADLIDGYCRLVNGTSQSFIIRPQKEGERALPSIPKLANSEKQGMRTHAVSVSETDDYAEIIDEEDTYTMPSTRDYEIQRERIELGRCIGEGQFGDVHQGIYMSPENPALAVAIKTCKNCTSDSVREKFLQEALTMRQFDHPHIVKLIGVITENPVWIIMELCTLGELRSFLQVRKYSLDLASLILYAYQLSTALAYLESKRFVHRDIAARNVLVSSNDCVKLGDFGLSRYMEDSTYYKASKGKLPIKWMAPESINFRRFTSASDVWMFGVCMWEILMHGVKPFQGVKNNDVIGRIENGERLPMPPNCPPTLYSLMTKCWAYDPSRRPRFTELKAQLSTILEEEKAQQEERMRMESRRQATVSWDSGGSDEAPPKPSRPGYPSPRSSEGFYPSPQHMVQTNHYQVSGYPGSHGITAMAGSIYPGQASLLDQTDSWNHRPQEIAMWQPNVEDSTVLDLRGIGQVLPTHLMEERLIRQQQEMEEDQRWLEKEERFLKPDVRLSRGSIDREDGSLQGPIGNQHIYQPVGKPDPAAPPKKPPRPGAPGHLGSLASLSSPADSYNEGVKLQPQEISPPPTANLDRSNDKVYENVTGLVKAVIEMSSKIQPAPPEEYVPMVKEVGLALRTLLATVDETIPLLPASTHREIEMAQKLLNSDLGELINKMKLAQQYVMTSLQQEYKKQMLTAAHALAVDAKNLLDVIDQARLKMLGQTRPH

| IC50 (FAK [1]) | IC50 (SNU-668 cells) | SMILES | IC50 (NUGC4 cells) | inhibition of activated YAP (non-p-YAP) [2] | inhibition of phosphorylation of FAK (p-FAK 397) (FAK (p-FAK 397)) | further results |
| --- | --- | --- | --- | --- | --- | --- |
| 5.67 nM | – | C=CC(=O)N1CCCC(c2cccc(NCc3ccc(Nc4ncc(C(F)(F)F)c(Nc5ccccc5C(=O)NOC)n4)cc3)c2)C1 (centres unmarked) [Compound 11, 2-((2-((4-(((3-(1-acryloylpiperidin-3-yl)phenyl)amino)methyl)phenyl)amino)-5-(trifluoromethyl)pyrimidin-4-yl)amino)-N-methoxybenzamide] | 90 nM | inhibit the activated YAP (non-p-YAP) | can inhibit the phosphorylation of FAK (p-FAK 397) | effect on cell morphology of DGC organoid [3]: significantly better effects than defactinib and IN-10018 |
| 2.68 nM | 50 nM | C=CC(=O)N1CCCC(c2cccc(NCc3ccc(Nc4ncc(C(F)(F)F)c(Nc5ccccc5C(=O)NC)n4)cc3)c2)C1 (centres unmarked) [Compound 6, 2-((2-((4-(((3-(1-acryloylpiperidin-3-yl)phenyl)amino)methyl)phenyl)amino)-5-(trifluoromethyl)pyrimidin-4-yl)amino)-N-methylbenzamide] | 20 nM | inhibit the activated YAP (non-p-YAP) | can inhibit the phosphorylation of FAK (p-FAK 397) | IC50 (FAK [4]; enzyme pre-incubation 60 minutes at 25° C.): 0.662 nM; effective inhibition time on the kinase activity of FAK (FAK [4]; pre-incubation 0, 15 and 60 minutes, compared to defactinib): longer effective inhibition time |
| – | 8400 nM | COc1cc(C(=O)NC2CCN(C)CC2)c(F)cc1Nc1ncc(C(F)(F)F)c(Oc2cccc3c2C(=O)N(C)C3)n1 [IN10018, reference compound] | 3500 nM | – | – | inhibition of YAP activity (non-p-YAP) (YAP (non-p-YAP)): no inhibiting effect on YAP activity |
| 19.8 nM | – | C=CC(=O)N1CCCC(c2cccc(NCc3ccc(Nc4ncc(C(F)(F)F)c(Nc5cccc(F)c5C(=O)NC)n4)cc3)c2)C1 (centres unmarked) [Compound 13, 2-((2-((4-(((3-(1-acryloylpiperidin-3-yl)phenyl)amino)methyl)phenyl)amino)-5-(trifluoromethyl)pyrimidin-4-yl)amino)-6-fluoro-N-methylbenzamide] | – | inhibit the activated YAP (non-p-YAP) | can inhibit the phosphorylation of FAK (p-FAK 397) | – |

Continued, compound first:

| SMILES | IC50 (FAK [1]) | IC50 (SNU-668 cells) | IC50 (NUGC4 cells) | inhibition of activated YAP (non-p-YAP) [2] | inhibition of phosphorylation of FAK (p-FAK 397) (FAK (p-FAK 397)) | further results |
| --- | --- | --- | --- | --- | --- | --- |
| C=CC(=O)N1CCCC1c1ccc(NCc2ccc(Nc3ncc(C(F)(F)F)c(Nc4ccccc4C(=O)NC)n3)cc2)cc1 (centres unmarked) [Compound 9, 2-((2-((4-(((4-(1-acryloylpyrrolidin-2-yl)phenyl)amino)methyl)phenyl)amino)-5-(trifluoromethyl)pyrimidin-4-yl)amino)-N-methylbenzamide] | 3.71 nM | – | – | inhibit the activated YAP (non-p-YAP) | can inhibit the phosphorylation of FAK (p-FAK 397) | effect on cell morphology of DGC organoid [3]: significantly better effects than defactinib and IN-10018 |
| C=CC(=O)N1CCCC(c2cccc(NCc3ccc(Nc4ncc(C(F)(F)F)c(Nc5ccccc5S(=O)(=O)NC(C)C)n4)cc3)c2)C1 (centres unmarked) [Compound 19, 2-((2-((4-(((3-(1-acryloylpiperidin-3-yl)phenyl)amino)methyl)phenyl)amino)-5-(trifluoromethyl)pyrimidin-4-yl)amino)-N-isopropylbenzenesulfonamide] | 10.4 nM | 210 nM | 90 nM | – | – | – |
| CNC(=O)c1ccc(Nc2ncc(C(F)(F)F)c(NCc3nccnc3N(C)S(C)(=O)=O)n2)cc1 [Defactinib, reference compound] | – | – | 1370 nM | – | – | inhibition of YAP activity (non-p-YAP) (YAP (non-p-YAP)): no inhibiting effect on YAP activity; AUC(0-inf) [5]: 0.441 µM·h; AUC(0-t) [5]: 0.424 µM·h; Cmax [5]: 99.5 nM; Tmax [5]: 4 h; half-life [5]: 72 min |
